From publication PMC5407577, “Functional and genetic evidence that nucleoside transport is highly conserved in Leishmania species: Implications for pyrimidine-based chemotherapy” (International Journal for Parasitology: Drugs and Drug …, 2017)

What was measured:
Lmaj5F2′dURes = assay: microbe, parasite or virus in culture; assay type: cell-based, Leishmania major
Method: (§1) Sensitivity assays of Leishmania strains to various drugs using the viability dye resazurin (Alamar Blue) (Sigma-Aldrich) were performed using a protocol adapted from [Räz et al. (1997)], as described ([Al-Salabi et al., 2003], [Gould et al., 2008]). Pentamidine and diminazene were used as non-nucleoside controls and were obtained from Sigma-Aldrich, as were many purines, pyrimidines, and analogs, with the exceptions of 2-thiouridine and 4-thiouridine (TriLink BioTechnologies, San Diego, CA); 5′-deoxyuridine, and 2′-3′-dideoxyuridine (Carbosynth, Compton, UK); 5-fluoro-2′-deoxyuridine (Fluka); and 2-thiouracil (ICN Biomedicals, Cambridge, UK). A preliminary promastigote culture was diluted to a density of 2 × 10^6 cells/ml, of which 100 μl was added to wells of 96-well plates pre-loaded with 100 μl of doubling dilutions of test compounds, resulting in a final density of 1 × 10^6 cells/ml; the dilutions were over 2 rows of the plate (23 concentrations), with the last well containing only medium and serving as the no-drug control. The plates were incubated at 25 °C for 72 h before adding the Alamar Blue dye (20 μl of 12.5 mg resazurin sodium salt (Sigma) in 100 ml phosphate buffered saline (PBS; pH 7.4)). Since Leishmania parasites metabolize the Alamar Blue dye slower than trypanosomes ([Gould et al., 2008]), the cells were incubated with the dye for a further period of 48 h before measuring the fluorescence, using a FLUOstar Optima fluorimeter (BMG Labtech) at wavelengths of 544 nm for excitation and 620 nm for emission. […] Each experiment was performed independently at least 4 times; statistical significance was determined using Student's unpaired t-test.

Lmaj5FURes = assay: microbe, parasite or virus in culture; assay type: cell-based, Leishmania major
Method: as §1

L. major promastigotes = assay: metabolomic analysis of treated L. major promastigotes; assay type: cell-based, Leishmania major; conditions: 100 μM, 8 h
Method: (§2) Metabolomics analysis of the Leishmania promastigotes was undertaken in triplicate, exactly as described ([Ali et al., 2013a]). Briefly, cells were grown to log phase stage, resuspended at 2 × 10^6 cells/ml in 50 ml HOMEM/FBS and incubated 8 h with 100 μM of test compound (standard conditions) before transfer to a 50-ml centrifuge tube for instantaneous cooling (dry ice/ethanol bath, 4 °C) and centrifugation (2500 rpm, 10 min, 4 °C). The pellet was lysed with 200 μl of chloroform/methanol/water (1:3:1 v/v/v) containing mass spectrometry standards, and vigorous mixing (1 h, 4 °C); cell debris was removed by centrifugation and the metabolite extracts were stored in HPLC vials at −80 °C. Control samples were prepared in parallel and included untreated cells, unused growth medium, test compound solution and extraction solvent blanks. The analysis used a hydrophilic interaction liquid chromatography (HILIC-LC) fitted with a zwitterionic ZIC-pHILIC column (Merck Sequant), coupled to high resolution mass spectrometry (MS) using a Thermo Q-Exactive, and metabolomic data outputs were analyzed using the IDEOM application (http://mzmatch.sourceforge.net/ideom.php) with default parameters ([Creek et al., 2012]) exactly as described ([Ali et al., 2013a]). The lower limit of detection was set to 500 intensity units for all reported metabolites, in order to prevent spurious identification of low level signals.
(§3) The mechanism of action of the fluorinated pyrimidines was investigated using a metabolomics approach, where promastigotes of L. mexicana and L. major were incubated for 8 h with 100 μM of either 5-FU, 5F-2′dUrd or 5F-Urd prior to metabolite extraction and mass spectrometric analysis as described ([Ali et al., 2013a], [Alkhaldi et al., 2015]). These conditions were chosen to allow for significant metabolite accumulation while not affecting cell viability or growth rate, which could broadly affect metabolite levels.

LmexNT1 = assay type: cell-based, Leishmania mexicana; conditions: inhibition of 0.25 μM [3H]-uridine uptake in the presence of 1 mM uracil
Method: (§4) Using the standard uptake technique as described for T. brucei and Leishmania species ([Wallace et al., 2002], [Al-Salabi and De Koning, 2005], [Gudin et al., 2006]), the dose- or time-dependent uptake of radiolabeled permeants was investigated.
(§5) Briefly, cells in the mid-to-late logarithmic stage of growth were harvested by centrifugation for 10 min at 1500×g. The cells were washed twice with transport assay buffer (AB: 33 mM HEPES, 98 mM NaCl, 4.6 mM KCl, 0.55 mM CaCl2, 0.07 mM MgSO4, 5.8 mM NaH2PO4, 0.3 mM MgCl2, 23 mM NaHCO3, 14 mM glucose, pH 7.3), resuspended at a density of 10^8 cells ml^−1 in AB, and left for 20–30 min at room temperature to recover from centrifugation stress. One hundred microliters of cell suspension was incubated at ambient temperature for a predetermined time with 100 μl radiolabeled test compound, in the presence or absence of unlabeled substrate or other competitive inhibitors. The incubation was terminated by the addition of ice-cold stop solution (AB containing saturating levels, usually 10 mM, of unlabeled permeant) and centrifugation through oil for 1 min at 13,000 × g. […] Radioactivity was determined by liquid scintillation counting in a Beckman LS6000 TA scintillation counter. Saturation data, inhibition data, and time courses were plotted to equations for linear or non-linear regression (hyperbolic or sigmoid curves), as appropriate. All experiments were performed in triplicate and on at least three independent occasions.

LmexUU1 = assay type: cell-based, Leishmania mexicana; conditions: inhibition of [3H]-uracil uptake, 4 min
Method: as §4, §5

Lmex5FURes [1] = assay type: cell-based, Leishmania mexicana; conditions: 0.5 μM radiolabel
Method: as §4, §5

[2] = system: L. mexicana promastigotes WT; assay: Alamar blue drug sensitivity assay, L. mexicana WT; assay type: cell-based, Leishmania mexicana; conditions: Leishmania mexicana, 72 h, WT promastigotes, 72 h + 48 h with dye; n ≥ 4; read-out: EC50
Method: as §1

[3] = system: L. mexicana promastigotes; assay: metabolomic analysis of treated L. mexicana promastigotes; assay type: cell-based, Leishmania mexicana; conditions: 100 μM, 8 h
Method: as §2, §3

[4] = system: L. major promastigotes WT; assay: Alamar blue drug sensitivity assay, L. major WT; assay type: cell-based, Leishmania major; conditions: Leishmania major, 72 h, WT promastigotes, 72 h + 48 h with dye; n ≥ 4; read-out: EC50
Method: as §1

Lmex5F2′dURes = assay: microbe, parasite or virus in culture; assay type: cell-based, Leishmania mexicana
Method: as §1

Lmex5FURes [5] = assay: microbe, parasite or virus in culture; assay type: cell-based, Leishmania mexicana
Method: as §1

[6] = n = 3, SEM, untreated: not detected (<500)

O=c1[nH]cc(F)c(=O)[nH]1 [5-FU, 5-Fluorouracil]
EC50 (Lmaj5F2′dURes; Leishmania major): 12 ± 1 µM | RF (Resistance Factor = IC50 (resistant clone)/IC50 (WT)) (Lmaj5F2′dURes; Lmaj5F2′dURes vs L. major WT): 1.3 | EC50 (Lmaj5FURes; Leishmania major): 150 ± 5 µM | RF (Resistance Factor = IC50 (resistant clone)/IC50 (WT)) (Lmaj5FURes; Lmaj5FURes vs L. major WT): 17 | dCMP peak intensity (L. major promastigotes; [6]): 5130 arbitrary units | dUrd peak intensity (L. major promastigotes; untreated: 712 ± 105): 5177 ± 1445 arbitrary units | dCTP peak intensity (L. major promastigotes; untreated: 995 ± 109): 4541 ± 565 arbitrary units | dAdo peak intensity (L. major promastigotes; untreated: 2992 ± 173): 6996 ± 2423 arbitrary units | dAMP peak intensity (L. major promastigotes; untreated: 6192 ± 910): 19379 ± 3774 arbitrary units | dADP peak intensity (L. major promastigotes; untreated: not detected): not detected | dCDP peak intensity (L. major promastigotes; untreated: not detected): 6197 ± 1588 arbitrary units | Ki (LmexNT1): > 5000 µM | Ki (LmexUU1): 56.3 ± 6.4 µM | uptake of radiolabel, lower than in WT control cells (Lmex5FURes [1]): 94.5% | EC50 [2]: 9.3 ± 0.6 µM | dCMP peak intensity [3, 6]: 5636 ± 3288 arbitrary units | dUrd peak intensity ([3]; untreated: 304 ± 155): 4166 ± 1560 arbitrary units | dADP peak intensity ([3]; untreated: 1458): 8948 ± 461^∗∗ arbitrary units | dAdo peak intensity ([3]; untreated: 2585 ± 811): 6476 ± 2403 arbitrary units | dAMP peak intensity ([3]; untreated: 10660 ± 2897): 20366 ± 5358 arbitrary units | dCDP peak intensity ([3]; untreated: not detected): 4803 ± 433^∗∗ arbitrary units | dCTP peak intensity ([3]; untreated: not detected): 2913 ± 1346 arbitrary units | EC50 [4]: 8.5 ± 0.6 µM | EC50 (Lmex5F2′dURes; Leishmania mexicana): 1770 ± 301 µM | RF (Resistance Factor = IC50 (resistant clone)/IC50 (WT)) (Lmex5F2′dURes; Lmex5F2′dURes vs L. mexicana WT): 190 | EC50 (Lmex5FURes [5]; Leishmania mexicana): 1370 ± 123 µM | RF (Resistance Factor = IC50 (resistant clone)/IC50 (WT)) (Lmex5FURes [5]; Lmex5FURes vs L. mexicana WT): 147
